Experimental data published in US11464749B2, “Bismuth-thiol compositions and methods of use” (Microbion Corporation, priority 2018, dated 2022).
Values after ≈ are worked out from the molar mass of the structure shown. Read-outs that look alike come from different tables or passages of the source. Blank lines part the entries; values can stand above or below the compound they belong to.

What was measured:
[1] = tested on: Escherichia coli; test: Broth microdilution MIC (Example 12)
[2] = tested on: Klebsiella pneumoniae; test: Broth microdilution MIC (Example 12)
[3] = tested on: Pseudomonas aeruginosa; test: Broth microdilution MIC (Example 12)
[4] = tested on: Acinetobacter baumannii; test: Broth microdilution MIC (Example 12)
[5] = tested on: Neisseria gonorrhoeae; test: Agar dilution MIC (Example 11); assay type: cell-based; conditions: read-out: MIC
[6] = tested on: Staphylococcus aureus (MRSA); test: Broth microdilution MIC (Example 11)
[7] = tested on: E. faecalis; test: Broth microdilution MIC (Example 11); conditions: Enterococcus faecalis, VRE, VRE Lev^R Cip^R Ery^R
[8] = tested on: S. pneumoniae; test: Broth microdilution MIC (Example 11); conditions: Streptococcus pneumoniae
[9] = tested on: S. pyogenes; test: Broth microdilution MIC (Example 11); conditions: Streptococcus pyogenes
[10] = tested on: S. agalactiae; test: Broth microdilution MIC (Example 11); conditions: Streptococcus agalactiae

MIC ([1]; E. coli ATCC 35218, ESBL): 0.12 µg/mL (≈ 0.22 µM)
MIC ([1]; E. coli ATCC 35218, QC organism (Table 102)): 0.12 µg/mL (≈ 0.22 µM)
MIC ([1]; E. coli ATCC BAA-2471, NDM): >64 µg/mL
MIC ([1]; E. coli CDC 114, ESBL/KPC): >64 µg/mL
MIC ([1]; E. coli CDC 118, ESBL/NDM): >64 µg/mL
MIC ([1]; E. coli CDC 435, NDM): >64 µg/mL
MIC ([1]; E. coli CDC 451, KPC): 64 µg/mL (≈ 117 µM)
MIC ([1]; E. coli CDC 503, ESBL/NDM): >64 µg/mL
MIC ([1]; E. coli MMX 5745, KPC): 32 µg/mL (≈ 58.5 µM)
MIC ([1]; E. coli MMX 5755, ESBL): >64 µg/mL
MIC ([1]; E. coli MMX 5756, ESBL): >64 µg/mL
MIC ([1]; E. coli MMX 5758, ESBL): 16 µg/mL (≈ 29.3 µM)
MIC ([2]; K. pneumoniae ATCC BAA-1705, ESBL/KPC): >64 µg/mL
MIC ([2]; K. pneumoniae ATCC BAA-1705, QC organism (Table 102)): >64 µg/mL
MIC ([2]; K. pneumoniae CDC 112, KPC): >64 µg/mL
MIC ([2]; K. pneumoniae CDC 113, ESBL/KPC): >64 µg/mL
MIC ([2]; K. pneumoniae CDC 115, ESBL/KPC): >64 µg/mL
MIC ([2]; K. pneumoniae CDC 120, ESBL/KPC): >64 µg/mL
MIC ([2]; K. pneumoniae CDC 126, ESBL/KPC): 4 µg/mL (≈ 7.32 µM)
MIC ([2]; K. pneumoniae CDC 129, ESBL/KPC): >64 µg/mL
MIC ([2]; K. pneumoniae CDC 135, ESBL/VIM): >64 µg/mL
MIC ([2]; K. pneumoniae CDC 138, ESBL/NDM): >64 µg/mL
MIC ([2]; K. pneumoniae CDC 158, ESBL/NDM/OXA): >64 µg/mL
MIC ([2]; K. pneumoniae MMX 9029, ESBL): 4 µg/mL (≈ 7.32 µM)
MIC ([3]; P. aeruginosa CDC 230, VIM/OXA): 64 µg/mL (≈ 117 µM)
MIC ([3]; P. aeruginosa CDC 231, KPC/OXA): >64 µg/mL
MIC ([3]; P. aeruginosa CDC 241, IMP/OXA): >64 µg/mL
MIC ([3]; P. aeruginosa CDC 246, NDM/OXA): >64 µg/mL
MIC ([3]; P. aeruginosa CDC 250, NDM/OXA): >64 µg/mL
MIC ([3]; P. aeruginosa CDC 356, KPC): 64 µg/mL (≈ 117 µM)
MIC ([3]; P. aeruginosa CDC 439, IMP): >64 µg/mL
MIC ([3]; P. aeruginosa CDC 444, VIM): 32 µg/mL (≈ 58.5 µM)
MIC ([3]; P. aeruginosa CDC 457, VIM): >64 µg/mL
MIC ([3]; P. aeruginosa CDC 516, KPC/AmpC): 64 µg/mL (≈ 117 µM)
MIC ([3]; P. aeruginosa CDC 518, KPC/AmpC): 32 µg/mL (≈ 58.5 µM)
MIC ([4]; A. baumannii CDC 273, ESBL/OXA): 64 µg/mL (≈ 117 µM)
MIC ([4]; A. baumannii CDC 274, ESBL/OXA): >64 µg/mL
MIC ([4]; A. baumannii CDC 275, ESBL/OXA): >64 µg/mL
MIC ([4]; A. baumannii CDC 277, ESBL/OXA): >64 µg/mL
MIC ([4]; A. baumannii CDC 284, ESBL/OXA): 64 µg/mL (≈ 117 µM)
MIC ([4]; A. baumannii CDC 307, OXA): 64 µg/mL (≈ 117 µM)
MIC ([4]; A. baumannii CDC 308, ESBL/OXA): 64 µg/mL (≈ 117 µM)
MIC ([4]; A. baumannii CDC 311, OXA): >64 µg/mL
MIC ([4]; A. baumannii CDC 312, OXA): >64 µg/mL
MIC ([4]; A. baumannii CDC 313, ESBL/OXA): >64 µg/mL
MIC ([4]; A. baumannii NCTC 13304, OXA): >64 µg/mL
Structure (SMILES): CC(C)(O/N=C(\C(=O)N[C@@H]1C(=O)N2C(C(=O)[O-])=C(C[n+]3ccccc3)CS[C@H]12)c1csc(N)n1)C(=O)O [CAZ]

Structure (SMILES): CO/N=C(\C(=O)N[C@@H]1C(=O)N2C(C(=O)O)=C(CSc3nc(=O)c(=O)[nH]n3C)CS[C@H]12)c1csc(N)n1 [Ceftriaxone]
MIC ([5]; ATCC49226, N. gonorrhoeae MMX 683 (ATCC 49226), QC): 0.015 µg/mL (≈ 0.027 µM)
MIC ([5]; N. gonorrhoeae MMX 6757, CTX NS): 1 µg/mL (≈ 1.8 µM)
MIC ([5]; N. gonorrhoeae MMX 6791, CIP^R): 0.06 µg/mL (≈ 0.108 µM)
MIC ([5]; N. gonorrhoeae MMX 6792, CIP^R): 0.06 µg/mL (≈ 0.108 µM)
MIC ([5]; N. gonorrhoeae MMX 6793, CIP^R): 0.03 µg/mL (≈ 0.0541 µM)

MIC ([6]; ATCC29213|MRSA|MSSA, S. aureus MMX 101 (ATCC 29213), QC, MSSA): 0.5 µg/mL (≈ 0.681 µM)
MIC ([6]; MRSA, S. aureus MMX 5373, MRSA Lev^R Cip^R CC^R Ery^R Ox^R): > 64 µg/mL
MIC ([6]; MRSA, S. aureus MMX 6311, MRSA Lev^R Cip^R CC^R Ery^R Ox^R): > 64 µg/mL
MIC ([6]; MRSA, S. aureus MMX 9203, MRSA Lev^R Cip^R Ery^R Ox^R): > 64 µg/mL
MIC ([6]; MRSA, S. aureus MMX 9204, MRSA Lev^R Cip^R Ery^R Ox^R): > 64 µg/mL
MIC ([6]; MRSA, S. aureus MMX 9205, MRSA Lev^R Cip^R CC^R Ery^R Ox^R): > 64 µg/mL
MIC ([7]; E. faecalis MMX 8960): > 64 µg/mL
MIC ([7]; E. faecalis MMX 8961): > 64 µg/mL
MIC ([7]; E. faecalis MMX 8962): > 64 µg/mL
MIC ([8]; ATCC49619, S. pneumoniae MMX 6837 (ATCC 49619), QC): 0.03 µg/mL (≈ 0.0409 µM)
MIC ([8]; S. pneumoniae MMX 880, Lev^R SXT^R CC^R Ery^R Pen^R): > 8 µg/mL
MIC ([8]; S. pneumoniae MMX 937, Mem^R SXT^R CC^R Ery^R Pen^R): > 8 µg/mL
MIC ([8]; S. pneumoniae MMX 3959, CC^R Ery^R): > 8 µg/mL
MIC ([8]; S. pneumoniae MMX 5440, Mem^R SXT^R CC^R Ery^R Pen^R): > 8 µg/mL
MIC ([8]; S. pneumoniae MMX 5445, Mem^R SXT^R CC^R Ery^R Pen^R): > 8 µg/mL
MIC ([8]; S. pneumoniae MMX 8133, Mem^R SXT^R CC^R Ery^R Pen^R): > 8 µg/mL
MIC ([9]; S. pyogenes MMX 3068, Ery^R): > 8 µg/mL
MIC ([9]; S. pyogenes MMX 3820, ERY^R CLI^R): > 8 µg/mL
MIC ([9]; S. pyogenes MMX 3919, ERY^R): > 8 µg/mL
MIC ([9]; S. pyogenes MMX 3929, ERY^R CC^R): > 8 µg/mL
MIC ([9]; S. pyogenes MMX 5091, ERY^R CC^R): > 8 µg/mL
MIC ([10]; S. agalactiae MMX 3741, ERY^R CC^R): 8 µg/mL (≈ 10.9 µM)
MIC ([10]; S. agalactiae MMX 3743, ERY^R CC^R): > 8 µg/mL
MIC ([10]; S. agalactiae MMX 4077, ERY^R CC^R): > 8 µg/mL
MIC ([10]; S. agalactiae MMX 4079, ERY^R CC^R Pen^R MEM^R): > 8 µg/mL
MIC ([10]; S. agalactiae MMX 4086, ERY^R CC^R): > 8 µg/mL
Structure (SMILES): CC[C@H]1OC(=O)[C@H](C)[C@@H](O[C@H]2C[C@@](C)(OC)[C@@H](O)[C@H](C)O2)[C@H](C)[C@@H](O[C@@H]2O[C@H](C)C[C@H](N(C)C)[C@H]2O)[C@](C)(O)C[C@@H](C)C(=O)[C@H](C)[C@@H](O)[C@]1(C)O [Erythromycin]
